Measurements taken from patent US3995061A, “Pharmaceutical composition and method of using the same” (Chugai Seiyaku Kabushiki Kaisha, priority 1974, dated 1976).

How the values were obtained:
Acute toxicity, rat = details: in vivo, male
Source text: (§1) Acute toxicity of the ascochlorin derivatives was observed by the use of Wister-Imamichi strain male rats weighing 230 ± 30 g and ddY strain male and female mice (5 weeks old) weighing 20 ±3 g which were divided into groups of 10 members each. Japanese native male rabbits weighing 2 kg ± 300 g which were divided into groups of five members each were also used. The test animals were orally or intraperitoneally administered with a different ascochlorin derivative as a suspension in 5% gum arabic aqueous solution, and the toxicity was compared with that of control in which ascochlorin was used.

Cholesterol in serum = assay: Serum cholesterol lowering activity in rats on high-fat feed, single oral dose; assay type: in vivo, Wister-Imamich strain male rats; details: rat, 75 mg/kg oral, 6 hours after administration
Source text: The cholesterol lowering activity of the ascochlorin derivatives of this invention was observed by the use of Wister-Imamich strain male rats weighing 230 ± 30 g which had been bred with the use of high-fat feed comprising 1000 g of powdery chow CLEA CE-2 (sold by NIHON CLEA KABUSHIKI KAISHA) admixed with 10 g of cholesterol, 95 g of hydrogenated coconut oil, 2 g of cholic acid, 150 g of milk casein and 671 g of sucrose.
The rats were divided into groups of five members each, and orally administered with a different ascochlorin derivative as a suspension in gum arabic aqueous solution in a dose of 75 mg/kg.body weight. The rats were kept from eating food, and 6 hours after the administration, the blood of each rat was sampled from its heart. The total amount of cholesterol in serum was determined by a modified Zurkowski method (Clinical Chemistry, 10, 451, 1964) with the use of a colorimeter for blood analysis (sold by KYOTO DAIICHI KAGAKU).

blood platelet = assay: Aggregation inhibition activity of blood platelet (ADP-induced, platelet rich plasma of orally dosed rats); assay type: in vivo, Wister-Imamich strain male rats; details: rat, 20 mg/kg oral, 6 hours; adenosine-5'-diphosphate 10^-5 M in platelet rich plasma
Method: In this Example Wister-Imamich strain male rats weighing 230 ± 30 g which had been bred with the use of a commercial chow, CLEA CE-2 were used.
The rats were divided into groups of five members each, and orally administered with a different ascochlorin derivative as a suspension in 2% gum arabic aqueous solution in a dose of 20 mg/kg.body weight. Six hours after the administration, the blood of each rat was sampled from the heart and after the addition of citric acid, the blood sample was centrifuged at 1,500 r.p.m. for 10 minutes to obtain platelet rich plasma. The anti-aggregation effect when the concentration of adenosine-5'-diphosphatein the platelet rich plasma is ultimately 10^^-5 M is shown in Table II.
As positive controls, ascochlorin, ethyl-α-(p-chlorophenoxy) isobutylate and acetyl salicyclic acid were used. The aggregation inhibition ratio was evaluated in percent by comparing the increase of transmission rate caused by the addition of adenosin-5'-diphosphate to platelet rich plasma of the control group (no medication) with that caused on the groups administered with an ascochlorin derivative which is calculated for 100.

Acute toxicity, mouse = details: in vivo
Source text: as §1

Acute toxicity, rabbit = assay: Acute toxicity, rabbit; design: species or system Japanese native male rabbits; details: in vivo, male, oral
Source text: as §1

arteriosclerosis = assay: Treatment of arteriosclerosis in human beings, oral administration; assay type: in vivo; details: 50 mg dose after every meal, study not completed
Source text: In order to treat arteriosclerosis by the use of the composition prepared according to the present invention, mammals and poultry are orally administered with the pharmaceutical composition prepared according to the present invention once or more a day. Especially, for human beings, it is preferable to administer the composition three times per day, after every meal. For animals other than human beings, the composition may be administered alone or by mixing it with feed. As stated above, the dose of the composition depends on the kind of animals to which it is to be administered and on the form of the composition. However, the dose ranges generally 0.05-500, preferably 0.5-50 mg/kg.body weight per day based on the ascochlorin derivative.

Serum Lipid = assay: Hypolipidemic activity: change in level of serum lipid, 30 days, high-fat feed; assay type: in vivo, Wister strain rats; details: rat; for Serum Cholesterol / Serum Free fatty acid / Serum Phospholipid / Serum Triglyceride / Serum β-Lipoprotein: average ± standard error
Lipid in liver and aorta = assay: Hypolipidemic activity: change of lipid level in organs and aorta abdominalis, 30 days, high-fat feed; assay type: in vivo, Wister strain rats; design: Cholesterol in Tunica intima of aorta abdominalis: unit not given here; details: rat; for Cholesterol in Liver / Cholesterol in Tunica intima of aorta abdominalis / Phospholipid in Liver / Triglyceride in Liver: average ± standard error
Method: Wister strain rats weighing 150 ± 20 g were divided into groups of 10 members each and bred with high-fat feed, the same as that used in Example 1. The rats were orally administered ascochlorin, 4-O-methylascochlorin or ethyl-α-(p-chlorophenoxy) isobutylate in a predetermined dose every morning for 30 days. Six hours after the last administration, liver and aorta of each rat were taken out and lipid level in the organs of each of the rats were determined. Lipid present in the liver and aorta was extracted with methanol-chloroform (1:1) by allowing it to stand overnight and the extract was assayed as to lipid level.

CCOc1c(Cl)c(C)c(C=O)c(O)c1C/C=C(C)/C=C/C1(C)C(C)CCC(=O)C1C (stereo not shown) [4-O-ethylascochlorin]
LD50 (Acute toxicity, rat; ip): 5100 mg/kg | Cholesterol in serum (Cholesterol in serum): 82.2 mg/dL | Aggregation Inhibition Ratio (blood platelet): 55.3% | LD50 (Acute toxicity, mouse; ip, male): 5600 mg/kg

CC(/C=C/C1(C)C(C)CCC(=O)C1C)=C\Cc1c(O)c(C=O)c(C)c(Cl)c1OCC(C)C (stereo not shown) [4-O-isobutylascochlorin]
Cholesterol in serum (Cholesterol in serum): 88.5 mg/dL | Aggregation Inhibition Ratio (blood platelet): 48.8%

CC(/C=C/C1(C)C(C)CCC(=O)C1C)=C\Cc1c(O)c(C=O)c(C)c(Cl)c1OC(C)C (stereo not shown) [4-O-isopropylascochlorin]
Cholesterol in serum (Cholesterol in serum): 85.6 mg/dL | Aggregation Inhibition Ratio (blood platelet): 57.2%

COc1c(Cl)c(C)c(C=O)c(O)c1C/C=C(C)/C=C/C1(C)C(C)CCC(=O)C1C (stereo not shown) [4-O-methylascochlorin]
LD50 (Acute toxicity, rabbit): > 2000 mg/kg | LD50 (Acute toxicity, rat; ip): 3100 mg/kg | LD50 (Acute toxicity, rat; oral): > 10000 mg/kg | Cholesterol in serum (Cholesterol in serum): 76.6 mg/dL | effect in human beings (arteriosclerosis): satisfactory effect | Serum Cholesterol, increasing or reducing ratio based on the control (Serum Lipid; 2.25 mg/kg oral): -4.2 | Serum Free fatty acid, increasing or reducing ratio based on the control (Serum Lipid; 2.25 mg/kg oral): -2.4 | Serum Phospholipid, increasing or reducing ratio based on the control (Serum Lipid; 2.25 mg/kg oral): -12.2 | Serum Triglyceride, increasing or reducing ratio based on the control (Serum Lipid; 2.25 mg/kg oral): -6.8 | Serum β-Lipoprotein, increasing or reducing ratio based on the control (Serum Lipid; 2.25 mg/kg oral): +7.3 | Serum Cholesterol (Serum Lipid; 2.25 mg/kg oral): 102.4 ± 13.8 mg/dL | Serum Free fatty acid (Serum Lipid; 2.25 mg/kg oral): 49.1±8.2 μ eq./dl | Serum Phospholipid (Serum Lipid; 2.25 mg/kg oral): 119.7 ± 12.5 mg/dL | Serum Triglyceride (Serum Lipid; 2.25 mg/kg oral): 74.5 ± 9.8 mg/dL | Serum β-Lipoprotein (Serum Lipid; 2.25 mg/kg oral): 819 ± 109 mg/dL | levels of all types of lipids (Serum Lipid; 9 mg/kg or more, oral): extremely lowered | Serum Cholesterol, increasing or reducing ratio based on the control (Serum Lipid; 9.0 mg/kg oral): -18.6 | Serum Free fatty acid, increasing or reducing ratio based on the control (Serum Lipid; 9.0 mg/kg oral): -10.4 | Serum Phospholipid, increasing or reducing ratio based on the control (Serum Lipid; 9.0 mg/kg oral): -13.2 | Serum Triglyceride, increasing or reducing ratio based on the control (Serum Lipid; 9.0 mg/kg oral): -19.0 | Serum β-Lipoprotein, increasing or reducing ratio based on the control (Serum Lipid; 9.0 mg/kg oral): -22.3 | Serum Cholesterol (Serum Lipid; 9.0 mg/kg oral): 87.0 ± 4.9 mg/dL | Serum Free fatty acid (Serum Lipid; 9.0 mg/kg oral): 44.8±3.5 μ eq./dl | Serum Phospholipid (Serum Lipid; 9.0 mg/kg oral): 118.4 ± 5.8 mg/dL | Serum Triglyceride (Serum Lipid; 9.0 mg/kg oral): 64.8 ± 5.2 mg/dL | Serum β-Lipoprotein (Serum Lipid; 9.0 mg/kg oral): 593 ± 85 mg/dL | Serum Cholesterol, increasing or reducing ratio based on the control (Serum Lipid; 22.5 mg/kg oral): -16.9 | Serum Free fatty acid, increasing or reducing ratio based on the control (Serum Lipid; 22.5 mg/kg oral): -16.3 | Serum Phospholipid, increasing or reducing ratio based on the control (Serum Lipid; 22.5 mg/kg oral): -13.5 | Serum Triglyceride, increasing or reducing ratio based on the control (Serum Lipid; 22.5 mg/kg oral): -20.5 | Serum β-Lipoprotein, increasing or reducing ratio based on the control (Serum Lipid; 22.5 mg/kg oral): -22.8 | Serum Cholesterol (Serum Lipid; 22.5 mg/kg oral): 88.8 ± 9.1 mg/dL | Serum Free fatty acid (Serum Lipid; 22.5 mg/kg oral): 42.1±2.7 μ eq./dl | Serum Phospholipid (Serum Lipid; 22.5 mg/kg oral): 117.9 ± 6.5 mg/dL | Serum Triglyceride (Serum Lipid; 22.5 mg/kg oral): 63.6 ± 4.6 mg/dL | Serum β-Lipoprotein (Serum Lipid; 22.5 mg/kg oral): 589 ± 133 mg/dL | Cholesterol in Liver, increasing or reducing ratio based on the control (Lipid in liver and aorta; 2.25 mg/kg oral): +12.9 | Cholesterol in Tunica intima of aorta abdominalis, increasing or reducing ratio based on the control (Lipid in liver and aorta; 2.25 mg/kg oral): -8.1 | Phospholipid in Liver, increasing or reducing ratio based on the control (Lipid in liver and aorta; 2.25 mg/kg oral): +2.6 | Triglyceride in Liver, increasing or reducing ratio based on the control (Lipid in liver and aorta; 2.25 mg/kg oral): -23.6 | Cholesterol in Liver (Lipid in liver and aorta; 2.25 mg/kg oral): 38.4 ± 6.4 mg/g | Cholesterol in Tunica intima of aorta abdominalis (Lipid in liver and aorta; 2.25 mg/kg oral): 18.2±1.4 | Phospholipid in Liver (Lipid in liver and aorta; 2.25 mg/kg oral): 72.0 ± 5.3 mg/g | Triglyceride in Liver (Lipid in liver and aorta; 2.25 mg/kg oral): 16.7 ± 1.3 mg/g | amount of lipids in liver and cholesterol in aorta (Lipid in liver and aorta; 9 mg/kg or more, oral): remarkably reduced | Cholesterol in Liver, increasing or reducing ratio based on the control (Lipid in liver and aorta; 9.0 mg/kg oral): -15.0 | Cholesterol in Tunica intima of aorta abdominalis, increasing or reducing ratio based on the control (Lipid in liver and aorta; 9.0 mg/kg oral): -29.3 | Phospholipid in Liver, increasing or reducing ratio based on the control (Lipid in liver and aorta; 9.0 mg/kg oral): -1.6 | Triglyceride in Liver, increasing or reducing ratio based on the control (Lipid in liver and aorta; 9.0 mg/kg oral): -21.1 | Cholesterol in Liver (Lipid in liver and aorta; 9.0 mg/kg oral): 28.9 ± 3.6 mg/g | Cholesterol in Tunica intima of aorta abdominalis (Lipid in liver and aorta; 9.0 mg/kg oral): 14.0±0.3 | Phospholipid in Liver (Lipid in liver and aorta; 9.0 mg/kg oral): 69.1 ± 9.9 mg/g | Triglyceride in Liver (Lipid in liver and aorta; 9.0 mg/kg oral): 17.2 ± 2.8 mg/g | Cholesterol in Liver, increasing or reducing ratio based on the control (Lipid in liver and aorta; 22.5 mg/kg oral): -21.8 | Cholesterol in Tunica intima of aorta abdominalis, increasing or reducing ratio based on the control (Lipid in liver and aorta; 22.5 mg/kg oral): -32.8 | Phospholipid in Liver, increasing or reducing ratio based on the control (Lipid in liver and aorta; 22.5 mg/kg oral): -12.0 | Triglyceride in Liver, increasing or reducing ratio based on the control (Lipid in liver and aorta; 22.5 mg/kg oral): -22.1 | Cholesterol in Liver (Lipid in liver and aorta; 22.5 mg/kg oral): 26.6 ± 2.2 mg/g | Cholesterol in Tunica intima of aorta abdominalis (Lipid in liver and aorta; 22.5 mg/kg oral): 13.3±0.4 | Phospholipid in Liver (Lipid in liver and aorta; 22.5 mg/kg oral): 61.8 ± 4.3 mg/g | Triglyceride in Liver (Lipid in liver and aorta; 22.5 mg/kg oral): 17.0 ± 0.7 mg/g | Aggregation Inhibition Ratio (blood platelet): 70.5% | LD50 (Acute toxicity, mouse; ip, female): 5500 mg/kg | LD50 (Acute toxicity, mouse; ip, male): 5000 mg/kg | LD50 (Acute toxicity, mouse; po, female): > 7300 mg/kg | LD50 (Acute toxicity, mouse; po, male): > 7300 mg/kg

CCCCOc1c(Cl)c(C)c(C=O)c(O)c1C/C=C(C)/C=C/C1(C)C(C)CCC(=O)C1C (stereo not shown) [4-O-n-butylascochlorin]
Cholesterol in serum (Cholesterol in serum): 86.9 mg/dL | Aggregation Inhibition Ratio (blood platelet): 53.7%
